The term EC50 denotes the concentration that produces a half-maximal response.

Our source for the EC50 values is patent US10508104B2, “6-hydroxy-5-(phenyl/heteroarylsulfonyl)pyrimidin-4(1H)-one as APJ agonists” (Bristol-Myers Squibb Company, priority 2016, dated 2019).

SMILES strings stand for the structures.

Chain of human APJ receptor (P35414 whole entry): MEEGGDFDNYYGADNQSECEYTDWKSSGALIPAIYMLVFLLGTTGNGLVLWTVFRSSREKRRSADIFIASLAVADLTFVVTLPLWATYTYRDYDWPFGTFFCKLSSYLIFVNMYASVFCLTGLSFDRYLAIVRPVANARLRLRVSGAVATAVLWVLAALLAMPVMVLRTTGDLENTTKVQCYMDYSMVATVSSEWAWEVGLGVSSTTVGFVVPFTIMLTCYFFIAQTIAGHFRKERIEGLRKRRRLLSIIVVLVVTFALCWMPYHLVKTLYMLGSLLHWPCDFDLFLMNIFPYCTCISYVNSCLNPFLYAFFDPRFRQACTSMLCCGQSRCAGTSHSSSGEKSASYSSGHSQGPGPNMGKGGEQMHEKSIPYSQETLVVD

The target in one assay is human APJ receptor (Homo sapiens (Human), UniProt P35414). The assay can be described thus: Intracellular cAMP accumulation assay (APJ hcAMP, HTRF). It is filed as cell-based. The note with it: HEK293 cells stably expressing human APJ receptor; inhibition of forskolin-mediated cAMP production; read-out: Human APJ cAMP EC50 Potency range. The method in brief:
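HEK293 cells stably expressing human APJ, 5,000 per well, incubated 30 min at rt with compound, […] and 2 μM forskolin. cAMP measured by HTRF against a cAMP standard curve as inhibition of forskolin-driven production. EC50 from variable-slope sigmoidal fit.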
(Cyclic AMP is a second messenger, typically raised through Gs and lowered through Gi signalling.)
As for `CCCCc1nc(=O)c(S(=O)(=O)C2CCNCC2)c(O)n1-c1c(OC)cccc1OC` [Example 106, 2-Butyl-1-(2,6-dimethoxyphenyl)-6-hydroxy-5-(piperidin-4-ylsulfonyl)pyrimidin-4(1H)-one], the EC50 lay within 10 to 100 nM. Same read-out and setting: the same measure for `CCCCc1nc(=O)c(S(=O)(=O)C2CCN(C)CC2)c(O)n1-c1c(OC)cccc1OC` [Example 107, 2-Butyl-1-(2,6-dimethoxyphenyl)-6-hydroxy-5-((1-methylpiperidin-4-yl)sulfonyl)pyrimidin-4(1H)-one]: 0.01 to 10 nM. Consider `CCCCc1nc(=O)c(S(=O)(=O)C2CCN(C(=O)c3nnc(C)o3)CC2)c(O)n1-c1c(OC)cccc1OC` [Example 110, 2-Butyl-1-(2,6-dimethoxyphenyl)-6-hydroxy-5-((1-(5-methyl-1,3,4-oxadiazole-2-carbonyl)piperidin-4-yl)sulfonyl)pyrimidin-4(1H)-one], for which the EC50 was 0.01 to 10 nM. Regarding `CCCCc1nc(=O)c(S(=O)(=O)c2ccc(C(=O)NN)cc2)c(O)n1-c1c(OC)cccc1OC` [Example 116, 4-((2-Butyl-1-(2,6-dimethoxyphenyl)-6-hydroxy-4-oxo-1,4-dihydropyrimidin-5-yl)sulfonyl)benzohydrazide], the 50% effective concentration (EC50) was in the range of 0.01 to 10 nM. Turning to `CCCCc1nc(=O)c(S(=O)(=O)c2ccc(Br)cc2)c(O)n1[C@@H](C)c1ccccc1` [Example 118, (S)-5-((4-Bromophenyl)sulfonyl)-2-butyl-6-hydroxy-1-(1-phenylethyl)pyrimidin-4(1H)-one], the EC50 is 100 to 300 nM. On the same count and under the same terms, the same measure for `CCCCc1nc(=O)c(S(=O)(=O)c2ccc(-c3cncc(F)c3)cc2)c(O)n1[C@@H](C)c1ccccc1` [Example 128, (S)-2-Butyl-5-((4-(5-fluoropyridin-3-yl)phenyl)sulfonyl)-6-hydroxy-1-(1-phenylethyl)pyrimidin-4(1H)-one]: 0.01 to 10 nM.

The same assay, now with this note: human APJ, intracellular cAMP accumulation; read-out: Human APJ cAMP EC50 Potency range.
In the case of `CCCCc1nc(=O)c(S(=O)(=O)C2CCN(CC)CC2)c(O)n1-c1c(OC)cccc1OC` [Example 108, 2-butyl-1-(2,6-dimethoxyphenyl)-5-[(1-ethylpiperidin-4-yl)sulfonyl]-6-hydroxy-1,4-dihydropyrimidin-4-one], the EC50 lay within 0.01 to 10 nM. On the same count and under the same terms, the same measure for `CCCCc1nc(=O)c(S(=O)(=O)C2CCN(Cc3cccc(F)c3F)CC2)c(O)n1-c1c(CC)cccc1CC` [Example 109, 2-butyl-1-(2,6-diethylphenyl)-5-({1-[(2,3-difluorophenyl)methyl]piperidin-4-yl}sulfonyl)-6-hydroxy-1,4-dihydropyrimidin-4-one]: 0.01 to 10 nM; for `CCCCc1nc(=O)c(S(=O)(=O)C2CCN(C(=O)c3ccccc3)CC2)c(O)n1-c1c(OC)cccc1OC` [Example 111, 5-[(1-benzoylpiperidin-4-yl)sulfonyl]-2-butyl-1-(2,6-dimethoxyphenyl)-6-hydroxy-1,4-dihydropyrimidin-4-one]: 0.01 to 10 nM; for `CCCCc1nc(=O)c(S(=O)(=O)C2CCN(C(=O)c3ccc(Cl)cc3)CC2)c(O)n1-c1c(OC)cccc1OC` [Example 112, 2-butyl-5-{[1-(4-chlorobenzoyl)piperidin-4-yl]sulfonyl}-1-(2,6-dimethoxyphenyl)-6-hydroxy-1,4-dihydropyrimidin-4-one]: 0.01 to 10 nM. Same read-out and setting: for `CCCCc1nc(=O)c(S(=O)(=O)C2CCN(C(=O)C3CC3)CC2)c(O)n1-c1c(OC)cccc1OC` [Example 113, 2-butyl-5-[(1-cyclopropanecarbonyl-piperidin-4-yl)sulfonyl]-1-(2,6-dimethoxyphenyl)-6-hydroxy-1,4-dihydropyrimidin-4-one] the value was 0.01 to 10 nM; for `CCCCc1nc(=O)c(S(=O)(=O)C2CCN(C(=O)CC(F)(F)F)CC2)c(O)n1-c1c(OC)cccc1OC` [Example 114, 2-butyl-1-(2,6-dimethoxyphenyl)-6-hydroxy-5-{[1-(3,3,3-trifluoropropanoyl)piper-idin-4-yl]sulfonyl}-1,4-dihydropyrimidin-4-one], 0.01 to 10 nM; for `CCCCc1nc(=O)c(S(=O)(=O)c2ccc(-c3nnc(C4CC4)o3)cc2)c(O)n1-c1c(OC)cccc1OC` [Example 117, 2-butyl-5-[4-(5-cyclopropyl-1,3,4-oxadiazol-2-yl)benzenesulfonyl]-1-(2,6-dimethoxyphenyl)-6-hydroxy-1,4-dihydropyrimidin-4-one], 0.01 to 10 nM. On the same count and under the same terms, for `CCCCc1nc(=O)c(S(=O)(=O)c2ccc(Br)cc2)c(O)n1[C@@H](COC)c1ccccc1` [Example 119, 5-(4-bromobenzenesulfonyl)-2-butyl-6-hydroxy-1-[(1R)-2-methoxy-1-phenylethyl]-1,4-dihydropyrimidin-4-one] the value was 10 to 100 nM; for `CCCCc1nc(=O)c(S(=O)(=O)c2ccc(Br)cc2)c(O)n1[C@H]1CCc2ccccc21` [Example 120, 5-(4-bromobenzenesulfonyl)-2-butyl-1-[(1S)-2,3-dihydro-1H-inden-1-yl]-6-hydroxy-1,4-dihydropyrimidin-4-one], 10 to 100 nM; for `CCCCc1nc(=O)c(S(=O)(=O)c2ccc(Br)cc2)c(O)n1[C@H](C)c1cccc(C#N)c1` [Example 121, 3-[(1R)-1-[5-(4-bromobenzenesulfonyl)-2-butyl-6-hydroxy-4-oxo-1,4-dihydropyrimidin-1-yl]ethyl]benzonitrile], 100 to 300 nM. As to `CCCCc1nc(=O)c(S(=O)(=O)c2ccc(Br)cc2)c(O)n1[C@@H](C)c1cccc(C#N)c1` [Example 122, 3-[(1S)-1-[5-(4-bromobenzenesulfonyl)-2-butyl-6-hydroxy-4-oxo-1,4-dihydropyrimidin-1-yl]ethyl]benzonitrile], the 50% effective concentration (EC50) was 10 to 100 nM. On the same count and under the same terms, for `COC[C@@H](c1ccccc1)n1c(CC2CC2)nc(=O)c(S(=O)(=O)c2ccc(Br)cc2)c1O` [Example 123, 5-(4-bromobenzenesulfonyl)-2-(cyclopropylmethyl)-6-hydroxy-1-[(1R)-2-methoxy-1-phenylethyl]-1,4-dihydropyrimidin-4-one] the value was 100 to 300 nM. Still for that read-out and setting: for `CCCCc1nc(=O)c(S(=O)(=O)c2ccc(Br)cc2)c(O)n1[C@@H](CC)c1cccc(OC)c1` [Example 124, 5-(4-bromobenzenesulfonyl)-2-butyl-6-hydroxy-1-[(1S)-1-(3-methoxyphenyl)propyl]-1,4-dihydropyrimidin-4-one] the value was 10 to 100 nM. The same measure, in the same setting: for `CCCc1nc(=O)c(S(=O)(=O)c2ccc(Br)cc2)c(O)n1[C@@H](COC)c1ccccc1` [Example 125, 5-(4-bromobenzenesulfonyl)-6-hydroxy-1-[(1R)-2-methoxy-1-phenylethyl]-2-propyl-1,4-dihydropyrimidin-4-one] the value was 100 to 300 nM. As to `CCCCc1nc(=O)c(S(=O)(=O)c2ccc(Br)cc2)c(O)n1[C@H](CC)c1ccccc1` [Example 126, 5-(4-bromobenzenesulfonyl)-2-butyl-6-hydroxy-1-[(1R)-1-phenylpropyl]-1,4-dihydropyrimidin-4-one], the concentration giving a half-maximal response (EC50) lay in the range of 10 to 100 nM. Still for that read-out and setting: for `CCCCc1nc(=O)c(S(=O)(=O)c2ccc(Br)cc2)c(O)n1[C@H](C)c1ccccc1` [Example 127, 5-(4-bromobenzenesulfonyl)-2-butyl-6-hydroxy-1-[(1R)-1-phenylethyl]-1,4-dihydropyrimidin-4-one] the value was 10 to 100 nM; for `CCCCc1nc(=O)c(S(=O)(=O)c2ccc(C)cc2)c(O)n1[C@@H](C)c1ccccc1` [Example 129, 2-butyl-6-hydroxy-5-(4-methylbenzenesulfonyl)-1-[(1S)-1-phenylethyl]-1,4-dihydropyrimidin-4-one], 100 to 300 nM.
